53 compounds from patent US20130165426A1, “IMIDAZOPYRIDINE, IMIDAZOPYRIMIDINE AND IMIDAZOPYRAZINE DERIVATIVES AS MELANOCORTIN-4 RECEPTOR MODULATORS” (UNIVERSITÉ DE MONTRÉAL, priority 2010, published 2013) can be followed below.

One may read the IC50 as the concentration at which inhibition is half-maximal. Read a high IC50 as weaker potency in that assay.

The target in the experiment is T1, wild-type human melanocortin 4 receptor (WT-hMC4R) (Homo sapiens, UniProt P32245).
T1 construct: expressed in transfected cells
T1 sequence (P32245 whole entry): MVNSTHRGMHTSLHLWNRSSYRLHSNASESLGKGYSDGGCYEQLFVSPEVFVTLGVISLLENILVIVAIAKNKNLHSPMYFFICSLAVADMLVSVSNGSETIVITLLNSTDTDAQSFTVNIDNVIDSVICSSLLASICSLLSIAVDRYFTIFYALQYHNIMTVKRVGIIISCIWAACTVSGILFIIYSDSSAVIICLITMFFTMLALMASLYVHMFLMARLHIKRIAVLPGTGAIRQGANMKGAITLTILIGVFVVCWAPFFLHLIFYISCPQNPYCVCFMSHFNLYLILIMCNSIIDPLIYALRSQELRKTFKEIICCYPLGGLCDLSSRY
In words: Cyclic AMP assay (HTRF), antagonist competition against NDP-α-MSH. The format is cell-based. The note with it: HEK293T cells stably expressing WT-hMC4R; inhibition of response to 4 nM NDP-α-MSH; cAMP. As for the experimental part:
The general procedures described above were used to prepare the examples described below. Reported HPLC retention time are for reverse-phase HPLC (Agilent, 1200 series) using the conditions reported above (See “General” section). Mass spectra were recorded on a 6210 G1969A LC/MSD TOF spectrometer from Agilent Technologies using the LC conditions reported above (See “General” section). IC50 values were obtained using the cAMP assay described below.
IC50 value is the half maximal concentration of the tested compound to inhibit half of the maximal response of the agonist NDP-α-MSH. It is a measurement of the antagonist compound potency.
Intracellular cyclic 3′-5′ adenosine monophosphate (cAMP) accumulation was measured using a competitive immunoassay based on HTRF (Homogeneous Time-Resolved Fluorescence) technology (cAMP dynamic-2, Cis-Bio).
HEK293T stable cell line expressing double-tagged WT-hMC4R construct were collected and washed in cAMP buffer (1×D-PBS pH 7.4, 0.1% glucose). 40,000 cells/well were then dispensed in 96-well plates in cAMP buffer [1×D-PBS, 1% BSA, 0.1% Glucose, 0.75 mM 3-isobutyl-1-methyl-xanthine (IBMX, Sigma)] and incubated either for antagonist competition assay: 1 hour at 37° C. with various concentrations of compound [0.01 nM-10 μM] followed by 30 min incubation at 37° C. with 4 nM of NDP-α-MSH (Sigma) or for agonist assay: 1 hour at 37° C. with various concentrations of compound [0.01 nM-10 μM]. 10,000 cells were transferred in 384-well plates, lysed and incubated with cAMP labeled with the dye d2 and anti-cAMP M-Antidody labeled with Cryptate following the manufacturer's protocol.
Reading of HTRF signal was performed on Artemis TR-FRET plate reader (Cosmo Bio).
All curve fitting was conducted using non-linear regression analyses from PRISM (version 4.0c, GraphPad Inc.) and the determination of Rmax and EC50 or IC50 parameters were obtained from sigmoidal dose-response phase (variable slope) equation.
A cDNA encoding a wild-type human MC4R with a 3 tandem copies of Hemaglutinine (HA) epitote sequence from UMR cDNA resource center was modified using known techniques in the art (e.g., PCR, cloning) to fused in frame at the C-terminal a venus-Yellow Fluorescent Protein (YFP) cDNA.
The resultant cDNA was then subcloned in eukaryotic expression vector, e.g. pcDNA 3.1(+) (Invitrogen).
The double tagged WT-hMC4R was transfected in HEK293T cells with lipofectamine (Invitrogen) following the manufacturer's instructions and permanently transfected clonal cell lines were selected by resistance to the neomycin analog G418.
HEK293T stable cell line expressing wild-type human melanocortin 4 receptor (WT-hMC4R) containing an N-terminal 3×HA epitope tag and an intracellular C-terminal venus-yellow fluorescent protein (v-YFP) were maintained at 37° C. in humidified air containing 5% CO2 in Dulbecoo's modified Eagle's medium (DMEM) supplemented with 10% fetal bovine serum (FBS), 100 U/ml penicillin/streptomycin (DMEM complete/10% FBS). Cells were generally at 70%-80% confluence on the day of assay.
(In TR-FRET formats the signal depends on donor and acceptor labels being close together.)
For the compound `CCCCN(CCCC)C(=O)c1ccc2nc(Nc3ccc(C(=O)N4CCOCC4)cc3)n(CCCN3CCCCC3)c2n1` [Cpd 59], the IC50 fell in the range of 100 to 1000 nM.
Under `C=C(C)CNc1nc2ccc(C(=O)N(CCCC)CCCC)nc2n1CCCN1CCCCC1` [Cpd 41] stands 1000 to 15000 nM; under `COc1ccc(Nc2nc3ccc(C(=O)N(CCC(C)C)CCC(C)C)nc3n2CCCN2CCCCC2)cc1` [Cpd 16], below 100 nM; under `CCCCN(CCCC)C(=O)c1ccc2nc(Nc3ccc(C(C)=O)cc3)n(CCCN3CCCCC3)c2n1` [Cpd 32], below 100 nM.
In the case of `CCCCN(CCCC)C(=O)c1ccc2nc(SCC)n(CCCN3CCCCC3)c2n1` [Cpd 61], the IC50 was in the range of 1000 to 15000 nM.
`CCCCN(CCCC)C(=O)c1ccc2nc(Nc3ccc(OC)cc3)n(CCCN3CCCCC3)c2n1` [Cpd 1] returned a concentration for half-maximal inhibition (IC50) below 100 nM.
Compound `COc1ccc(-c2nc3cnc(C(=O)N(CCC(C)C)CCC(C)C)cc3n2CCCN2CCCCC2)cc1` [Cpd 63] had an IC50 of 100 to 1000 nM.
Under `CCCCN(CCCC)C(=O)c1ccc2nc(-c3csc4ccccc34)n(CCCN3CCCCC3)c2n1` [Cpd 5, 2-(benzo[b]thiophen-3-yl)-N,N-dibutyl-3-(3-(piperidin-1-yl)propyl)-3H-imidazo[4,5-b]pyridine-5-carboxamide] stands 100 to 1000 nM.
Under `CCCCN(CCCC)C(=O)c1ccc2nc(Nc3cccnc3)n(CCCN3CCCCC3)c2n1` [Cpd 35] stands below 100 nM; under `CCCCCN(CCCCC)C(=O)c1cc2c(cn1)nc(Nc1ccc(OC)cc1)n2CCCN1CCCCC1` [Cpd 36], below 100 nM; under `CCCCN(CCCC)C(=O)c1ccc2nc(Nc3ccc(C(=O)O)cc3)n(CCCN3CCCCC3)c2n1` [Cpd 67], 1000 to 15000 nM.
For the compound `CCCCN(CCCC)C(=O)c1ccc2nc(NC3CCCCC3)n(CCCN3CCCCC3)c2n1` [Cpd 49], the IC50 lay within 100 to 1000 nM.
Next, `COc1ccc(-c2nc3ccc(C(=O)N(CCC(C)C)CCC(C)C)nc3n2CCCN2CCOCC2)cc1` [Cpd 77]: 1000 to 15000 nM.
Next, `CCCCN(CCCC)C(=O)c1ccc2nc(Nc3cccc4ccccc34)n(CCCN3CCCCC3)c2n1` [Cpd 45]: 100 to 1000 nM; `COc1ccc(Nc2nc3ccc(-c4cc5ccccc5n4C(=O)OC(C)(C)C)nc3n2CCCN2CCCCC2)cc1` [Cpd 6, tert-butyl 2-(2-((4-methoxyphenyl)amino)-3-(3-(piperidin-1-yl)propyl)-3H-imidazo[4,5-b]pyridin-5-yl)-1H-indole-1-carboxylate]: 1000 to 15000 nM.
Under `CCCCN(CCCC)C(=O)c1ccc2nc(Nc3ccccc3)n(CCCN3CCCCC3)c2n1` [Cpd 8] stands below 100 nM; under `CCCN(C(=O)c1ccc2nc(Nc3ccc(OC)cc3)n(CCCN3CCCCC3)c2n1)C(C)CC` (centres unmarked) [Cpd 25], 100 to 1000 nM; under `CCCCN(CCCC)C(=O)c1cnc2nc(Nc3ccc(OC)cc3)n(CCCN3CCCCC3)c2c1` [Cpd 38], 1000 to 15000 nM.
`CCCCN(CCCC)C(=O)c1cc2c(cn1)nc(Nc1ccccc1)n2CCCN1CCCCC1` [Cpd 51] gave an IC50 of 100 to 1000 nM.
Next, `COc1ccc(Nc2nc3ccc(C(=O)N(CCC(C)C)CCC(C)C)nc3n2C2CCN(Cc3ccccc3)CC2)cc1` [Cpd 27]: 1000 to 15000 nM; `CCCCN(CCCC)C(=O)c1ccc(Nc2nc3ccc(C(=O)N(CCCC)CCCC)nc3n2CCCN2CCCCC2)cc1` [Cpd 55]: 100 to 1000 nM.
Next, `COc1ccc(Nc2nc3ccc(C(=O)N(CC(C)C)CC(C)C)nc3n2CCCN2CCCCC2)cc1` [Cpd 12]: 100 to 1000 nM.
Under `CCCCN(CCCC)C(=O)c1cc2c(cn1)nc(-c1ccc(OC)cc1)n2CCCN1CCCCC1` [Cpd 60] stands 1000 to 15000 nM; under `COc1ccc(Nc2nc3ccc(C(=O)N4CCCCCC4)nc3n2CCCN2CCCCC2)cc1` [Cpd 21], 1000 to 15000 nM.
With `CCC(C)N(C(=O)c1ccc2nc(Nc3ccc(OC)cc3)n(CCCN3CCCCC3)c2n1)C(C)CC` (centres unmarked) [Cpd 15], the IC50 was in the range of 100 to 1000 nM.
Next, `CC(C)CCN(CCC(C)C)C(=O)c1cc2c(cn1)nc(-c1cc3ccccc3s1)n2CCCN1CCCCC1` [Cpd 65]: below 100 nM.
Under `CC(C)CCN(CCC(C)C)C(=O)c1ccc2nc(Nc3ccc(C(C)(C)O)cc3)n(CCCN3CCCCC3)c2n1` [Cpd 70] stands below 100 nM; under `COc1ccc(Nc2nc3cnc(C(=O)N(CCC(C)C)CCC(C)C)cc3n2CCCN2CCCCC2)cc1` [Cpd 37], below 100 nM; under `CCCCN(CCCC)C(=O)c1ccc2nc(NC(C)C)n(CCCN3CCCCC3)c2n1` [Cpd 34], 1000 to 15000 nM.
Next, `CCCCN(CCCC)C(=O)c1ccc2nc(NCc3ccccc3)n(CCCN3CCCCC3)c2n1` [Cpd 10]: 100 to 1000 nM; `CCCCN(CCCC)C(=O)c1ccc2nc(Nc3ccc(C(=O)OC)cc3)n(CCCN3CCCCC3)c2n1` [Cpd 48]: below 100 nM.
Regarding `COc1ccc(Br)cc1-c1nc2cnc(C(=O)N(CCC(C)C)CCC(C)C)cc2n1CCCN1CCCCC1` [Cpd 64], the half-inhibitory concentration (IC50) was in the range of 1000 to 15000 nM.
Under `CCCCN(CCCC)C(=O)c1ccc2nc(-c3cc(Br)ccc3OC)n(CCCN3CCCCC3)c2n1` [Cpd 44] stands 100 to 1000 nM.
Under `CC(=O)N1CCC(c2nc3ccc(C(=O)N(CCC(C)C)CCC(C)C)nc3n2CCCN2CCOCC2)CC1` [Cpd 78] stands 1000 to 15000 nM; under `CCCCN(CC#N)C(=O)c1ccc2nc(Nc3ccc(OC)cc3)n(CCCN3CCCCC3)c2n1` [Cpd 20], 1000 to 15000 nM.
Under `CCCCN(CCCC)C(=O)c1ccc2nc(Nc3ccc(C(=O)N4CCN(C)CC4)cc3)n(CCCN3CCCCC3)c2n1` [Cpd 58] stands 100 to 1000 nM; under `CC(C)CCN(CCC(C)C)C(=O)c1ccc2nc(Nc3ccc(C(C)O)cc3)n(CCCN3CCCCC3)c2n1` (centres unmarked) [Cpd 69], below 100 nM.
In the case of `CCCCN(CCCC)C(=O)c1ccc2nc(Nc3ccc(C)cc3)n(CCCN3CCCCC3)c2n1` [Cpd 46], the IC50 is below 100 nM.
Next, `CC(C)CCN(CCC(C)C)C(=O)c1ccc2nc(Nc3cccnc3)n(CCCN3CCOCC3)c2n1` [Cpd 75]: 100 to 1000 nM; `CCCCN(CCC)C(=O)c1ccc2nc(Nc3ccc(OC)cc3)n(CCCN3CCCCC3)c2n1` [Cpd 24]: 100 to 1000 nM; `CCCCN(CCCC)C(=O)c1ccc2nc(N)n(CCCN3CCCCC3)c2n1` [Cpd 40]: 1000 to 15000 nM.
For the compound `COc1ccc(Nc2nc3ccc(C(=O)N4CC5CCC(CC5)C4)nc3n2CCCN2CCCCC2)cc1` [Cpd 19], the IC50 lay in the range of 1000 to 15000 nM.
As for `CCCCN(CCCC)C(=O)c1ccc2nc(Nc3ccc(CC)cc3)n(CCCN3CCCCC3)c2n1` [Cpd 33], the IC50 was 100 to 1000 nM.
Under `CCCCN(CCCC)C(=O)c1cc2c(cn1)nc(NCc1ccccc1)n2CCCN1CCCCC1` [Cpd 52] stands below 100 nM.
Under `COc1ccc(Nc2nc3ccc(C(=O)N(CCC(C)C)CCC(C)C)nc3n2CCCN2CCOCC2)cc1` [Cpd 74] stands 100 to 1000 nM; under `CCCCN(CCCC)C(=O)c1ccc2nc(Nc3ccc(OC)cc3)n(CC(C)(C)CN(C)C)c2n1` [Cpd 29], 1000 to 15000 nM.
In turn, `CCC1CCC(C)N(C(=O)c2ccc3nc(Nc4ccc(OC)cc4)n(CCCN4CCCCC4)c3n2)C1` (centres unmarked) [Cpd 22] had an IC50 of 1000 to 15000 nM.
On to `CCCN(CCC)C(=O)c1ccc2nc(Nc3ccc(OC)cc3)n(CCCN3CCCCC3)c2n1` [Cpd 13], for which the IC50 fell in the range of 100 to 1000 nM.
`COc1ccc(Nc2nc3ccc(C(=O)N4CC(C)CC(C)C4)nc3n2CCCN2CCCCC2)cc1` (centres unmarked) [Cpd 2, (3,5-dimethylpiperidin-1-yl)(2-((4-methoxyphenyl)amino)-3-(3-(piperidin-1-yl)propyl)-3H-imidazo[4,5-b]pyridin-5-yl)methanone] showed an IC50 of 1000 to 15000 nM.
Under `CCCCN(CCCC)C(=O)c1ccc2nc(NC(=O)OCC)n(CCCN3CCCCC3)c2n1` [Cpd 39] stands 1000 to 15000 nM; under `COc1ccc(Nc2nc3ccc(C(=O)N(CCC4CC4)CCC4CC4)nc3n2CCCN2CCCCC2)cc1` [Cpd 30], below 100 nM.
Next, `CCCCN(CCCC)C(=O)c1ccc2nc(-c3cc(F)ccc3Br)n(CCCN3CCCCC3)c2n1` [Cpd 42]: 1000 to 15000 nM.
Under `CCCCN(CCCC)C(=O)c1cc2c(cn1)nc(Oc1ccc(OC)cc1)n2CCCN1CCCCC1` [Cpd 66] stands 100 to 1000 nM.
